Like-named read-outs stand apart in the source and are kept apart here.
Test system: H460 (NRF2 pathway mutant cell line with high AKR1C3 expression)
Test: In vitro cell proliferation assay (CellTiter-Glo), H460
Type: cell-based
Conditions: Homo sapiens, NCI-H460, 72 h, read-out: H460 Qualified absolute AC50
From the text: Cellular Proliferation Assay to Assess Compounds Activity in H460 (NRF2 Pathway Mutant Cell Line with High AKR1C3 Expression) and Hara (NRF2 Pathway Wild Type Cell Line with Low AKR1C3 Expression).
The cell lines A549 and H460 are NRF2 pathway mutant and specifically contain genetic alterations in KEAP1 (A549: G333C, H460: D236H) (Singh A. et al., 2006 PLoS Medicine 3(10) e420). In these cell lines the NRF2 pathway is constitutively active and these cells express high levels of NRF2 protein and NRF2 pathway target gene AKR1C3. […] They have low AKR1C3 expression.
In Vitro Cell Proliferation Assay
Day 1, for H460 800 cells/well or 40 μL of 2×10^4 cells/mL and for Hara 2000 cells/well or 40 μL of 5×10^4 cells/mL medium (RPMI-1640 supplemented with 10% fetal bovine serum and 1% penicillin/streptomycin) were seeded into 384-well tissue culture plates. Day 2, compounds were serially diluted 1:5 to generate 8 point dose response curves and added to cells for a final top concentration of 10 μM. DMSO (1%) control and MG132 (30 μM) controls are added in columns 23 and 24 respectively on each plate for positive and negative control. After incubation for 3 days at 37° C./5% CO2, 30 μl of CellTiter-Glo reagent (Promega) was added and the plates were incubated for 10 min on plate shaker. The amount of luminescence was determined using a Perkin Elmer Envision plate reader. CellTiter-Glo luminescence values of cells treated with DMSO and MG132 controls were used to normalize the data and calculate percentage activity and AC50s of compounds using the Helios Software suite.

[1] = H460 cells, 3 days, CellTiter-Glo, top concentration 10 μM

| Compound | AC50 [1] [nM] | AC50 [nM] |
| --- | --- | --- |
| CC(O)CNC(=O)c1cc(CNC(=O)N2CCC3(CC2)CC(=O)c2cc(F)ccc2N3C)ccc1F (racemic) [Example 88, 6′-fluoro-N-(4-fluoro-3-((2-hydroxypropyl)carbamoyl)benzyl)-1′-methyl-4′-oxo-3′,4′-dihydro-1′H-spiro[piperidine-4,2′-quinoline]-1-carboxamide] | 421 | – |
| Cc1occc1CNC(=O)N1CCC2(CC1)C[C@@H](O)c1cc(F)ccc1N2 (single isomer, unassigned) [Example 169] | 8 | – |
| Nc1ccc(CNC(=O)N2CCC3(CC2)C[C@@H](O)c2cc(F)ccc2N3)cc1F (single isomer, unassigned) [Example 170a] | 11 | – |
| Nc1ccc(CNC(=O)N2CCC3(CC2)C[C@H](O)c2cc(F)ccc2N3)cc1F (single isomer, unassigned) [Example 170b] | ≥ 17300 | – |
| Cc1ccc(CNC(=O)N2CCC3(CC2)CC(=O)c2cc(F)ccc2N3)o1 [Example 1, 6′-fluoro-N-((5-methylfuran-2-yl)methyl)-4′-oxo-3′,4′-dihydro-1′H-spiro[piperidine-4,2′-quinoline]-1-carboxamide] | 143 | – |
| O=C1CC2(CCN(C(=O)NCc3ccc(OP(=O)(O)O)cc3)CC2)Nc2ccc(F)cc21 [Example 4, 4-((6′-fluoro-4′-oxo-3′,4′-dihydro-1′H-spiro[piperidine-4,2′-quinoline]-1-carboxamido)methyl)phenyl dihydrogen phosphate] | – | 6 |
| Cc1ccc(CNC(=O)N2CCC3(CC2)CC(=O)c2cc(F)ccc2N3C)o1 [Example 7, 6′-fluoro-1′-methyl-N-((5-methylfuran-2-yl)methyl)-4′-oxo-3′,4′-dihydro-1′H-spiro[piperidine-4,2′-quinoline]-1-carboxamide] | 10 | – |
| O=C1CC2(CCN(C(=O)NCc3ccc(Cl)o3)CC2)Nc2ccc(F)cc21 [Example 22, N-((5-chlorofuran-2-yl)methyl)-6′-fluoro-4′-oxo-3′,4′-dihydro-1′H-spiro[piperidine-4,2′-quinoline]-1-carboxamide] | 37 | – |
| CN1c2ccc(F)cc2C(=O)CC12CCN(C(=O)NCc1ccc(F)c(NCC3COCCO3)c1)CC2 (centres unmarked) [Example 31, N-(3-(((1,4-dioxan-2-yl)methyl)amino)-4-fluorobenzyl)-6′-fluoro-1′-methyl-4′-oxo-3′,4′-dihydro-1′H-spiro[piperidine-4,2′-quinoline]-1-carboxamide] | 64 | – |
| O=C(NCc1ccc(CO)cc1)c1cc(CNC(=O)N2CCC3(CC2)CC(=O)c2cc(F)ccc2N3)ccc1F [Example 32, 6′-fluoro-N-(4-fluoro-3-((4-(hydroxymethyl)benzyl)carbamoyl)benzyl)-4′-oxo-3′,4′-dihydro-1′H-spiro[piperidine-4,2′-quinoline]-1-carboxamide] | 64 | – |
| Cc1coc(C)c1CNC(=O)N1CCC2(CC1)CC(=O)c1cc(F)ccc1N2 [Example 34, N-((2,4-dimethylfuran-3-yl)methyl)-6′-fluoro-4′-oxo-3′,4′-dihydro-1′H-spiro[piperidine-4,2′-quinoline]-1-carboxamide] | 75 | – |
| O=C1CC2(CCN(C(=O)NCc3cn[nH]c3)CC2)Nc2ccc(F)cc21 [Example 37, N-((1H-pyrazol-4-yl)methyl)-6′-fluoro-4′-oxo-3′,4′-dihydro-1′H-spiro[piperidine-4,2′-quinoline]-1-carboxamide] | 81 | – |
| CN1CCN(C(=O)C(C)(C)CNc2cc(CNC(=O)N3CCC4(CC3)CC(=O)c3cc(F)ccc3N4C)ccc2F)CC1 [Example 44, N-(3-((2,2-dimethyl-3-(4-methylpiperazin-1-yl)-3-oxopropyl)amino)-4-fluorobenzyl)-6′-fluoro-1′-methyl-4′-oxo-3′,4′-dihydro-1′H-spiro[piperidine-4,2′-quinoline]-1-carboxamide] | 99 | – |
| COCCNC(=O)c1cc(CNC(=O)N2CCC3(CC2)CC(=O)c2cc(F)ccc2N3C)ccc1F [Example 58, 6′-fluoro-N-(4-fluoro-3-((2-methoxyethyl)carbamoyl)benzyl)-1′-methyl-4′-oxo-3′,4′-dihydro-1′H-spiro[piperidine-4,2′-quinoline]-1-carboxamide] | 181 | – |
| Cc1occc1CNC(=O)N1CCC2(CC1)CC(=O)c1cc(F)ccc1N2 [Example 59, 6′-fluoro-N-((2-methylfuran-3-yl)methyl)-4′-oxo-3′,4′-dihydro-1′H-spiro[piperidine-4,2′-quinoline]-1-carboxamide] | 185 | – |
| O=C(NC1CC(O)C1)c1cc(CNC(=O)N2CCC3(CC2)CC(=O)c2cc(F)ccc2N3)ccc1F (centres unmarked) [Example 60, 6′-fluoro-N-(4-fluoro-3-((3-hydroxycyclobutyl)carbamoyl)benzyl)-4′-oxo-3′,4′-dihydro-1′H-spiro[piperidine-4,2′-quinoline]-1-carboxamide] | 198 | – |
| Cc1cc(CNC(=O)N2CCC3(CC2)CC(=O)c2cc(F)ccc2N3)n[nH]1 [Example 72, 6′-fluoro-N-((5-methyl-1H-pyrazol-3-yl)methyl)-4′-oxo-3′,4′-dihydro-1′H-spiro[piperidine-4,2′-quinoline]-1-carboxamide] | 282 | – |
| Cc1c(CNC(=O)N2CCC3(CC2)CC(=O)c2cc(F)ccc2N3)ccc(F)c1C(N)=O [Example 79, N-(3-carbamoyl-4-fluoro-2-methylbenzyl)-6′-fluoro-4′-oxo-3′,4′-dihydro-1′H-spiro[piperidine-4,2′-quinoline]-1-carboxamide] | 345 | – |
| CN(C)CCNC(=O)c1cc(CNC(=O)N2CCC3(CC2)CC(=O)c2cc(F)ccc2N3)ccc1F [Example 81, N-(3-((2-(dimethylamino)ethyl)carbamoyl)-4-fluorobenzyl)-6′-fluoro-4′-oxo-3′,4′-dihydro-1′H-spiro[piperidine-4,2′-quinoline]-1-carboxamide] | 352 | – |
| CN1c2ccc(F)cc2C(=O)CC12CCN(C(=O)NCc1ccc(F)c(NCCN3CCCC3=O)c1)CC2 [Example 90, 6′-fluoro-N-(4-fluoro-3-((2-(2-oxopyrrolidin-1-yl)ethyl)amino)benzyl)-1′-methyl-4′-oxo-3′,4′-dihydro-1′H-spiro[piperidine-4,2′-quinoline]-1-carboxamide] | 443 | – |
| O=C1CC2(CCN(C(=O)NCc3ccoc3C(F)(F)F)CC2)Nc2ccc(F)cc21 [Example 96, 6′-fluoro-4′-oxo-N-((2-(trifluoromethyl)furan-3-yl)methyl)-3′,4′-dihydro-1′H-spiro[piperidine-4,2′-quinoline]-1-carboxamide] | 489 | – |
| CN1c2ccc(F)cc2C(=O)CC12CCN(C(=O)NCc1ccc(F)c(C(=O)NCC(C)(C)O)c1)CC2 [Example 97, 6′-fluoro-N-(4-fluoro-3-((2-hydroxy-2-methylpropyl)carbamoyl)benzyl)-1′-methyl-4′-oxo-3′,4′-dihydro-1′H-spiro[piperidine-4,2′-quinoline]-1-carboxamide] | 491 | – |
| O=C(NCC(=O)C1CC1)c1cc(CNC(=O)N2CCC3(CC2)CC(=O)c2cc(F)ccc2N3)ccc1F [Example 100, N-(3-((2-cyclopropyl-2-oxoethyl)carbamoyl)-4-fluorobenzyl)-6′-fluoro-4′-oxo-3′,4′-dihydro-1′H-spiro[piperidine-4,2′-quinoline]-1-carboxamide] | 518 | – |
| CCc1noc(C)c1CNC(=O)N1CCC2(CC1)CC(=O)c1cc(F)ccc1N2 [Example 106, N-((3-ethyl-5-methylisoxazol-4-yl)methyl)-6′-fluoro-4′-oxo-3′,4′-dihydro-1′H-spiro[piperidine-4,2′-quinoline]-1-carboxamide] | 598 | – |
| Cc1cc(CNC(=O)N2CCC3(CC2)CC(=O)c2cc(F)ccc2N3)c(C)o1 [Example 110, N-((2,5-dimethylfuran-3-yl)methyl)-6′-fluoro-4′-oxo-3′,4′-dihydro-1′H-spiro[piperidine-4,2′-quinoline]-1-carboxamide] | 700 | – |
| CN1c2ccc(F)cc2C(=O)CC12CCN(C(=O)NCc1ccc(F)c(NCC(C)(C)C(=O)N3CCOCC3)c1)CC2 [Example 113] | 846 | – |
| Cc1ncc(CNC(=O)c2cc(CNC(=O)N3CCC4(CC3)CC(=O)c3cc(F)ccc3N4)ccc2F)o1 [Example 121, 6′-fluoro-N-(4-fluoro-3-(((2-methyloxazol-5-yl)methyl)carbamoyl)benzyl)-4′-oxo-3′,4′-dihydro-1′H-spiro[piperidine-4,2′-quinoline]-1-carboxamide] | 1080 | – |
| O=C(NC/C=C/CO)c1cc(CNC(=O)N2CCC3(CC2)CC(=O)c2cc(F)ccc2N3)ccc1F [Example 122, (E)-6′-fluoro-N-(4-fluoro-3-((4-hydroxybut-2-en-1-yl)carbamoyl)benzyl)-4′-oxo-3′,4′-dihydro-1′H-spiro[piperidine-4,2′-quinoline]-1-carboxamide] | 1110 | – |
| Cc1cc(CNC(=O)N2CCC3(CC2)CC(=O)c2cc(F)ccc2N3)c(C(F)(F)F)o1 [Example 127, 6′-fluoro-N-((5-methyl-2-(trifluoromethyl)furan-3-yl)methyl)-4′-oxo-3′,4′-dihydro-1′H-spiro[piperidine-4,2′-quinoline]-1-carboxamide] | 1430 | – |
